From patent publication US9314536B2, “Compounds and methods for the treatment of EGFR positive diseases” (Bio-Thera Solutions, Ltd., Co., priority 2012, dated 2016)

Assays:
tubulin = test: HTS-Tubulin Polymerization Assay Kit, tubulin polymerization in vitro; assay type: biochemical; conditions: 1 μM stock, 10 μL added to 100 μL 4 mg/ml tubulin, 37° C., 405 nm; compared with the PBS buffer
Procedure: The effect of 3AA-MDC, 206-3AA-MDC (206 is an anit-EGFR antibody containing a light chain with sequence shown in Seq ID 1 and a heavy chain with amino acid sequence shown in Seq ID 2, and it was prepared as described in example 7) and the metabolites (Cys-3AA-MDC and Lys-mcc-MDC) of prodrug antibody maytansinoid conjugates on the tubulin polymerization in vitro was assessed by HTS-Tubulin Polymerization Assay Kit (BK004P, Cytoskeleton, Inc., USA). According to the instruction of kit, pre-warm the 96-well plate to 37° C. for 30 min prior to starting the assay. At the same time, the spectrophotometer (SpectraMax, Molecular Devices, USA) was set as follow: wavelength, 405 nm; temperature, 37° C.; Kinetic, 31 cycles of 1 reading per minute. Make cold G-PEM buffer (990 μL General Tubulin Buffer+10 μL GTP Stock) and keep it on ice. Prepare 4 mg/mL tubulin, 1 μM L-3AA-MDC (N2′-deacetyl-N2′-(6-maleimido-1-oxo-hexyl)maytansine), 1 μM 206-3AA-MDC, 1 μM cys-3AA-MDC, 1 μM lys-mcc-MDC, 100 μM Paclitaxel, and 100 μM Nocodazole. Add 10 μL G-PEM, 3AA-MDC, 206-3AA-MDC, cys-3AA-MDC, lys-mcc-MDC, Paclitaxel, Nocodazole into the wells, and then add 100 μL 4 mg/ml tubulin to each well. Immediately place the plate into the spectrophotometer and start recording using the kinetic setup described above. […] Nocodazole, the tubulin polymerization inhibitor, was set as a negative control. […]

[1] = test system: human acute lymphoblastic leukemia line C.E.M.; conditions: cited from earlier work
[2] = versus methotrexate, daunorubicin, and vincristine; cited from earlier work

SMILES	inhibition of tubulin polymerization (tubulin)	inhibitory concentration (as low as) [1]	fold more cytotoxic than conventional chemotherapeutic agents [2]
COc1cc2cc(c1Cl)N(C)C(=O)C[C@H](OC(=O)[C@H](C)N(C)C(=O)CCSC1CC(=O)N(CC3CCC(C(=O)NCCCC[C@H](N)C(=O)O)CC3)C1=O)[C@]1(C)O[C@H]1[C@H](C)[C@@H]1C[C@@](O)(NC(=O)O1)[C@H](OC)/C=C/C=C(\C)C2 (stereo partly shown) [Lys-mcc-MDC]	more significantly inhibited the tubulin polymerization		
COc1cc2cc(c1Cl)N(C)C(=O)C[C@H](OC(=O)[C@H](C)N(C)C(C)=O)[C@]1(C)O[C@H]1[C@H](C)[C@@H]1C[C@@](O)(NC(=O)O1)[C@H](OC)/C=C/C=C(\C)C2 [Maytansine]		10^−7 mg/mL	100- to 1000 fold
COc1cc2cc(c1Cl)N(C)C(=O)C[C@H](OC(=O)[C@H](C)N(C)C(=O)CCCCCN1C(=O)C=CC1=O)[C@]1(C)OC1[C@H](C)[C@@H]1C[C@@](O)(NC(=O)O1)[C@H](OC)/C=C/C=C(\C)C2 (stereo partly shown) [3AA-MDC, N2′-deacetyl-N2′-(6-maleimido-1-oxo-hexyl)-maytansine]	more significantly inhibited the tubulin polymerization		
